Data reported in article PMC12165992, “Biochemical characterization of lipase from Cryptococcus albidus (D24) and its application in sugar fatty acid ester synthesis” (Archives of Microbiology, 2025).

System: T1, D24 lipase
T1 construct: native extracellular lipase from culture supernatant, only partially purified (dialysed, 10 kDa cut-off concentrated)
Assay: spectrophotometric p-nitrophenyl palmitate hydrolysis, Lineweaver-Burk
Assay type: biochemical, Naganishia albida
Details: pH 5.6, 37 °C; partially purified native enzyme, free

CCCCCCCCCCCCCCCC(=O)Oc1ccc([N+](=O)[O-])cc1 [p-nitrophenyl palmitate]
Km: 0.158 µM
